Laboratory results: US8507448B2, “Human CD154-binding synthetic peptide and uses thereof” (Fresenius Medical Care Deutschland G.m.b.H., priority 2007, dated 2013)

How the values were obtained:
HUVEC [1] = test: In vitro angiogenesis: cell cord formation of HUVECs on Matrigel; type: cell-based, human; conditions: pre-incubated with rhsCD154 100 ng/ml for 15 minutes at 37° C.; 4 hours
Excerpt: FIGS. 7B-F show representative images of cell cord formation ability on Matrigel under the various experimental conditions mentioned above (B=unstimulated control; C=rhsCD154; D=rhsCD154+ 4.10 peptide; E=rhsCD154+ 4.10-ala peptide; F=rhsCD154+ blocking anti-CD154 antibody). Peptide 4.10 of the invention (SEQ ID NO: 6), contrary to control peptide 4.10-ala (SEQ ID NO: 8), inhibits the rhsCD154-induced ability of the endothelial cells of forming cell cords.
(§1) Furthermore, in order to evaluate the inhibitory effect, rhsCD154 (100 ng/ml) was pre-incubated for 15 minutes at 37° C. with peptide 4.10 (SEQ. ID NO: 6), or with control peptide 4.10-ala (SEQ. ID NO: 8), or with a blocking anti-human CD154 antibody. The flasks were then observed at 10× magnification for a period of 4 hours under a phase contrast inverted microscope equipped with a thermostatic chamber (at about 37° C.). The cells were photographed with a camera connected to the microscope, over the whole length of time of 4 hours at regular intervals of 15 minutes each. The migratory speed of each of the cells was calculated based on the position of the nucleus of each single cell in each single frame, using an image analysis software and, as a result, the average cell migratory speed (1 standard deviation) was calculated for each experimental condition. […] As a further confirmation of the ability of peptide 4.10 to prevent human endothelial CD40 stimulation by rhsCD154 (100 ng/ml), HUVECs (3.5×10^4) were subjected to an in vitro angiogenesis assay. HUVECs were plated on a tumor matrix (Matrigel, BD) capable of promoting the formation of super cellular organization, in a basal RPMI medium supplemented with 5% serum. Upon incubation at 37° C. under 5% CO2 for 4 hours, the cells were observed under a contrast phase inverted microscope.

[2] = tested on: CD40 stimulation of peripheral B cells by rhsCD154; test: rhsCD154-induced B cell activation (CD80 and CD86 membrane expression); type: cell-based, human
Procedure: The histograms of 4A show the effect of the anti-CD154 peptides and the control peptide 4.10-ala, on the activation B cells induced by stimulation with a soluble recombinant human CD154 molecule (rhsCD154). B cells were stimulated for 48 hours with rhsCD154 in the absence and in the presence of a blocking anti-human CD154 antibody or one of the seven selected peptides. Peripheral B cell activation was evaluated by flow cytometry, as the membrane expression of the co-stimulatory molecules CD80 and CD86. […] On the contrary, the activation is prevented when rhsCD154 is used in combination with a blocking anti-human CD154 antibody or with peptide 4.10 (SEQ ID NO: 6).
B cells are known to constitutively express the CD40 molecule on the cells membrane (van Kooten C. et al, J. Leukoc. Biol. 2000). Stimulation of CD40 by CD154-expressing activated T cells, results in B cells activation, proliferation and isotype switching. The inventors employed B cells isolated from whole peripheral blood of healthy donors by gradient-Ficoll centrifugation and immunomagnetical separation (MACS systems—Milteniy). The quiescent B cells thereby obtained, were then stimulated with a soluble form of human recombinant CD154 (rhsCD154) to induce activation and expression of the co-stimulatory molecules CD80 (B7-1) and CD86 (B7-2) on the cell membrane. A drastic increase in membrane expression of CD80 and CD86 on the cell surface of peripheral B cells, after stimulation for 48 hours with rhsCD154 (100 ng/ml) was observed. […] In contrast, pre-incubation for 15 minutes at 37° C. of rhsCD154 (100 ng/ml) with peptide 4.10 (SEQ. ID NO: 6), prior to lymphocyte stimulation, blocked B cells stimulation and the related expression of CD80 and CD86. […] The results are the mean±standard deviation of five different experiments. Similar results were also obtained with B cells isolated from human spleen fragments. […] These experiments were carried out on […] naive B cells, obtained from peripheral blood by negative selection, by depletion of mature lymphocytes from the B cell pool by immunomagnetic separation (MACS Systems Milteniy).

[3] = biological target: T1, human CD154 expressed on the surface of J558L cells (Homo sapiens, UniProt P29965); test: Binding of -His6-tagged peptides to J558L CD154+ cells by flow cytometry; conditions: -His6 peptides 60 μM, 30 minutes at room temperature
T1 construct: expressed in transfected cells; host or cells: J558L murine myeloma cell line transfected with human CD154
T1 sequence (P29965 1-261): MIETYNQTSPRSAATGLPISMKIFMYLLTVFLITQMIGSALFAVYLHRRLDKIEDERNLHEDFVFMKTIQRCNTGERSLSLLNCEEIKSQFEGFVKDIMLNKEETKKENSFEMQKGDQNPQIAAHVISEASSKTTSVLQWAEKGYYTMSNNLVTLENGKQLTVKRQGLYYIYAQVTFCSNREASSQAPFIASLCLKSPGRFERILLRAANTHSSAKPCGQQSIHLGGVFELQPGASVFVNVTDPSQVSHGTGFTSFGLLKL
Procedure: FIG. 2 represents the binding of the seven peptides obtained from the human CD154-binding clones and tagged with a 6 histidines tail (-His6) to the J558L CD154^+ cells. […] The cells were incubated with each of the -His6-tagged peptides and then with a phycoerythrin-conjugated secondary antibody specific for the -His6 tail. The dotted histogram is the isotopic control, whilst the black line is the binding intensity of the CD154-specific peptides [4.2=4.3=CPSGHTKAC (SEQ ID NO: 1), 4.4=CGTHSSRIC (SEQ ID NO: 2), 4.6=CLGTQNKEC (SEQ ID NO: 3), 4.7=4.12=CTPGKPHSC (SEQ ID NO: 4), 4.8=CKAASANIC (SEQ ID NO: 5), 4.10=CLPTRHMAC (SEQ ID NO: 6) and 4.11=CLSAVHNMC (SEQ ID NO: 7)]. For each experimental condition, 10,000 events were analyzed and the values are the mean and standard deviation of 3 different experiments.
(§2) The peptides were synthesized and conjugated with biotin (-bio) or with a 6-histidine tail (-his6) so as to enable in vitro and in vivo localization. […] Furthermore, a competition assay between the peptides and an anti-human CD154 fluorescein-conjugated antibody (Serotec) specifically recognizing the active site of CD154 was carried out. The J558L cells were incubated with the his6-peptides for 30 minutes at room temperature and then with anti-human CD154 fluorescein-conjugated antibody for another 30 minutes at room temperature. […] In order to identify the amino acid residues of the amino acid sequence of peptide 4.10 which are essential to the binding to CD154, three different peptides were synthesized, each one carrying a point mutation, which amino acid sequences differ from that of peptide 4.10 by replacement of the amino acid residues at positions 4, 5, 6, respectively, with one alanine residue.
The mutated peptides were not capable of recognizing human CD154 expressed at the surface of J558L cells (data not shown).
Similar results were obtained with the four modified peptides 4.101, 4.102, 4.103 e 4.104 having the amino acid sequences illustrated in table II.

HUVEC [4] = test: rhsCD154-induced HUVEC motility (time-lapse migration); type: cell-based, human
Procedure: Peptide 4.10 (SEQ ID NO: 6), contrary to control peptide 4.10-ala (SEQ ID NO: 8), inhibits the rhsCD154-induced motility of endothelial cells.
It is known that an inflammatory process, once triggered, can be preserved by cells outside the immune system expressing particular receptors or lymphocyte co-stimulatory molecules, such as CD40 and its ligand CD154, such as e.g. endothelial cells from the vascular wall. […] In particular, the cell migration experiments were carried out with HUVEC cells plated on gelatin at a density of 4×10^3 in complete endothelial cell medium in the presence of 20% serum. The following day, the endothelial medium was replaced with low glucose DMEM (Sigma) with a reduced serum concentration (5%), in the presence or absence of rhsCD154 (100 ng/ml).
as §1, with “Upon incubation at 37° C. under 5% CO2 for 4 hours, the cells were observed under a contrast phase inverted microscope.” left out

[5] = biological target: T2, active site of human CD154 (Homo sapiens, UniProt P29965); test: Competition with anti-human CD154 fluorescein-conjugated antibody on J558L cells; type: binding; conditions: -His6 peptides 30 minutes at room temperature, then antibody
T2 construct: expressed in transfected cells; host or cells: J558L murine myeloma cell line transfected with human CD154
T2 sequence (P29965 1-261): T1 sequence (P29965 1-261)
Procedure: The murine myeloma cells transfected with human CD154, J558L, were incubated with each of the seven anti-CD154 peptides tagged with a 6 histidines tail (-His6), and then with the anti-CD154 fluorescein-conjugated antibody. The ability of the peptides to compete with the anti-CD154 antibody for the binding to the CD154 molecule expressed on the surface of the J558L cells was evaluated by flow cytometry, as the reduction in the fluorescence intensity compared to the positive control represented by cells incubated with the anti-human CD154 fluorescein-conjugated antibody alone. […] The amino acid sequence of the control peptide differs from that of peptide 4.10 in that an arginine residue is replaced with an alanine residue at amino acid position 5.
as §2

human platelets = test: Platelet aggregation assay (aggregometer); type: cell-based; conditions: priming 10 minutes at 37° C.; peptide 60 μM with CD154
Procedure: Platelet aggregation was measured with an aggregometer, as the increase in light transmission compared to the control. Priming of human platelets with the anti-human CD154 antibody in combination with rhsCD154 increases platelet aggregation upon stimulation with ADP 0.5 μM.
Finally, one of the major advantages of peptide 4.10 is its lack of reactivity towards human platelets. It is know that in the past, a number of clinical trials carried out to test promising anti-CD154 monoclonal antibodies were suddenly discontinued due to dramatic prothrombotic side effects (Kelsoe G. et al, J. Clin. Invest. 2003). The hypothesis is that the anti-CD154 antibodies had triggered a cross-reaction on the surface of human platelets expressing the receptor for the Fc immunoglobulin fraction (FcR) and, after activation, the CD154 molecule. Thus, the inventors tested the effect of peptide 4.10 on platelets, by a platelet aggregation assay. Such experiments were carried out by the use of a thermostatic aggregometer, equipped with a magnetic stirrer and a real time optical density meter. Platelet aggregation was evaluated as the change in optical density versus the reference sample (blank). The experiments were carried out on platelets extracted from peripheral whole blood of healthy donors collected in tubes containing 5 U/ml heparin. In particular, the platelet enriched plasma (PRP), was obtained by whole blood centrifugation at 900 rpm for 20 minutes, while the platelet poor plasma (PPP), used as the reference sample, was obtained collecting the supernatant after another centrifugation at 3000 rpm for 10 minutes. […] Similar results were obtained inducing platelet aggregation with 0.3 U/ml thrombin.

naive B cells = test: Isotype switching of naive B cells induced by IL-4 and rhsCD154; type: cell-based, human; conditions: IL-4 0.4 ng/ml and rhsCD154 100 ng/ml, 96 hours, no inhibitor
Procedure: The graphics of FIG. 5A show the percentage of naive B cells undergoing isotype switching and expressing IgG, under basal condition with no stimulation, after stimulation for 72 hours with IL4 and CD154, […] anti-human CD154 antibody, […] 4.10 (SEQ ID NO: 6), respectively. Peptide 4.10 (SEQ ID NO: 6), just as the anti-CD154 antibody, is capable of strongly inhibiting the isotype switching of immunoglobulins induced by stimulation with rhsCD154 and IL4.
B cells are known to constitutively express the CD40 molecule on the cells membrane (van Kooten C. et al, J. Leukoc. Biol. 2000). Stimulation of CD40 by CD154-expressing activated T cells, results in B cells activation, proliferation and isotype switching. The inventors employed B cells isolated from whole peripheral blood of healthy donors by gradient-Ficoll centrifugation and immunomagnetical separation (MACS systems—Milteniy). The quiescent B cells thereby obtained, were then stimulated with a soluble form of human recombinant CD154 (rhsCD154) to induce activation and expression of the co-stimulatory molecules CD80 (B7-1) and CD86 (B7-2) on the cell membrane. A drastic increase in membrane expression of CD80 and CD86 on the cell surface of peripheral B cells, after stimulation for 48 hours with rhsCD154 (100 ng/ml) was observed. […]

[6] = rhsCD154 100 ng/ml alone, 48 hours

Substance	effect on rhsCD154-induced formation of vessel-like cell cords on Matrigel (HUVEC [1])	inhibition of rhsCD154-induced B cell activation (CD80 and CD86 expression) ([2]; 250 μM)	binding to J558L CD154+ cells [3]	effect on rhsCD154-induced motility of HUVEC (HUVEC [4]; pre-incubated with rhsCD154 100 ng/ml for 15 minutes at 37° C.)	competition with anti-human CD154 fluorescein-conjugated antibody specific for the active site of CD154 [5]	platelet aggregation induced by ADP 0.5 μM after priming (human platelets)	increase in the number of B cells expressing membrane IgG (naive B cells) [%]	increase in membrane expression of CD80 compared to basal levels [2, 6] [%]	increase in membrane expression of CD86 compared to basal levels [2, 6] [%]	increase in the basal motility of cells (HUVEC [4]; rhsCD154 100 ng/ml alone)	cell migratory speed (HUVEC [4]; rhsCD154 100 ng/ml alone, basal lower than 12 μm/h) [μm/h]
CLPTAHMAC (binding protein) [peptide 4.10-ala, control peptide; arginine at position 5 of peptide 4.10 replaced with alanine, reference compound]	did not affect the ability of the cells to form vessel-like cell cords	neither affected the expression of CD80 and CD86	least reactive	did not affect endothelial CD40 stimulation	complete inactivation of the peptide's ability to compete	–	–	–	–	–	–
rhsCD154: recombinant soluble form of human CD154, used as the CD40 stimulus [reference compound]	–	–	–	–	–	did not enhance platelet aggregation	25	300	274	about 350%	42
